In ChEMBL document CHEMBL5584243, “Discovery of JNJ-74856665: A Novel Isoquinolinone DHODH Inhibitor for the Treatment of AML” (J Med Chem, 2024):
In brackets after ≈: the same amount, converted by molar mass.

Experiments:
[1] = test system: MOLM-13; test: Antiproliferative activity against human MOLM-13 cells assessed as inhibition of cell growth incubated for 72 hrs by CellTiter-Glo assay; type: functional, cell-based; details: MOLM-13, 72 h
[2] = Passive permeability across apical to basolateral side in dog MDCK-MDR1 cells; type: ADME, cell-based, Canis lupus familiaris
[3] = Lipophilicity, logD of compound; type: physicochemical; details: octanol/water
[4] = Metabolic stability in human liver microsomes assessed as half life incubated upto 60 mins in presence of NADPH by LC-MS/MS analysis; type: ADME, Microsome
[5] = Metabolic stability in mouse liver microsomes assessed as half life incubated upto 60 mins in presence of NADPH by LC-MS/MS analysis; type: ADME, Microsome
[6] = Equilibrium solubility of compound in PBS at pH 2 incubated for 2 to 5 days by HPLC analysis; type: physicochemical; details: PBS, time 2-5 day
[7] = Equilibrium solubility of compound in SGF at pH 1 using crystalline form incubated for 2 to 5 days by HPLC analysis; type: ADME; details: time 2-5 day
[8] = Equilibrium solubility of compound in FaSSIF at pH 6.5 using crystalline form incubated for 2 to 5 days by HPLC analysis; type: ADME; details: time 2-5 day
[9] = Plasma protein binding in human at 1 uM incubated for 6.5 hrs by LC-MS/MS analysis; type: ADME, cell-free; details: read-out: PPB (converted)
[10] = Volume of distribution at steady state in C57BL mouse at 2 mg/kg,iv measured upto 24 hrs by LC-MS/MS analysis; type: ADME, organism-based; details: in vivo, read-out: Vdss
[11] = Half life in C57BL mouse at 2 mg/kg,iv measured upto 24 hrs by LC-MS/MS analysis; type: ADME, organism-based; details: in vivo
[12] = Tmax in C57BL mouse at […] measured upto 24 hrs by LC-MS/MS analysis; type: ADME, organism-based; details: in vivo
[13] = Oral bioavailability in C57BL mouse at 10 mg/kg measured upto 24 hrs by LC-MS/MS analysis; type: ADME, organism-based; details: in vivo
[14] = Cmax in cynomolgus monkey at 10 mg/kg,po; type: ADME, organism-based, Macaca fascicularis; details: in vivo
[15] = AUC (0 to infinity) in cynomolgus monkey at 10 mg/kg,po; type: ADME, organism-based, Macaca fascicularis; details: in vivo
[16] = Oral bioavailability in cynomolgus monkey at 10 mg/kg; type: ADME, organism-based, Macaca fascicularis; details: in vivo
[17] = Metabolic stability in monkey liver microsomes assessed as half life incubated upto 60 mins in presence of NADPH by LC-MS/MS analysis; type: ADME, Macaca mulatta, Microsome; details: rhesus monkey
[18] = Half life in rat hepatocyte; type: ADME, cell-based; details: hepatocytes
[19] = Half life in mouse hepatocyte; type: ADME, cell-based; details: hepatocytes
[20] = Half life in monkey hepatocyte; type: ADME, cell-based, Macaca mulatta; details: rhesus monkey, hepatocytes
[21] = Half life in dog hepatocyte; type: ADME, cell-based, Canis lupus familiaris; details: hepatocytes
[22] = biological target: T1, Aryl hydrocarbon receptor (Homo sapiens, UniProt P35869); test: Activation of AhR (unknown origin) at 1 to 10 uM; details: dose 1-10 µM
T1 sequence (P35869 whole entry): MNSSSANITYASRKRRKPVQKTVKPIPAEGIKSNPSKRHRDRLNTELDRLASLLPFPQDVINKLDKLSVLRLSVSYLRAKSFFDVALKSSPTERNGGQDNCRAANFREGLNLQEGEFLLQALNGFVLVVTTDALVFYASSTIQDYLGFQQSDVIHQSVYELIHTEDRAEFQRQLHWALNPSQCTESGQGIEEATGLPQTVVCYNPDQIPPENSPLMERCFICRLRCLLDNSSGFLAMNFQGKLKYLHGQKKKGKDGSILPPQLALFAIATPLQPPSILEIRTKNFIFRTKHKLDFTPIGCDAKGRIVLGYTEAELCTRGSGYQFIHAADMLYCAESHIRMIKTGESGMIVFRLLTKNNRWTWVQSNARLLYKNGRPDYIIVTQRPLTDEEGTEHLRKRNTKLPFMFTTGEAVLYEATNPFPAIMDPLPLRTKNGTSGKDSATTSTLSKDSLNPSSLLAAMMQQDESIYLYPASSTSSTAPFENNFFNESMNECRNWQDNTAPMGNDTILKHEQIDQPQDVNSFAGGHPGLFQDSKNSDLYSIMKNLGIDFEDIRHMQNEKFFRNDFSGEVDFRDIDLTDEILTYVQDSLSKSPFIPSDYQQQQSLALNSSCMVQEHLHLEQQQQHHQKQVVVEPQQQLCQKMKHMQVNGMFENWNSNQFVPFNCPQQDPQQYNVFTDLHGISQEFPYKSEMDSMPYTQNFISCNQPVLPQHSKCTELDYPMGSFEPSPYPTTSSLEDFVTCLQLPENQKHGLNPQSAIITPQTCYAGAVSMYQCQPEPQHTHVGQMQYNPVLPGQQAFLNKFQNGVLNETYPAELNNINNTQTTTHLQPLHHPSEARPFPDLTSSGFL

[23] = biological target: T2, AhR (aryl hydrocarbon receptor) (Homo sapiens, UniProt P35869); test: Activation of AhR (unknown origin) assessed as fold change at 1 to 10 uM relative to control; details: dose 1-10 µM, read-out: FC
T2 sequence (P35869 whole entry): T1 sequence (P35869 whole entry)

[24] = biological target: T3, PXR (NR1I2) (Homo sapiens, UniProt O75469); test: Activation of PXR (unknown origin) assessed as fold change at 1 uM relative to control; type: ADME; details: read-out: FC
T3 sequence (O75469 whole entry): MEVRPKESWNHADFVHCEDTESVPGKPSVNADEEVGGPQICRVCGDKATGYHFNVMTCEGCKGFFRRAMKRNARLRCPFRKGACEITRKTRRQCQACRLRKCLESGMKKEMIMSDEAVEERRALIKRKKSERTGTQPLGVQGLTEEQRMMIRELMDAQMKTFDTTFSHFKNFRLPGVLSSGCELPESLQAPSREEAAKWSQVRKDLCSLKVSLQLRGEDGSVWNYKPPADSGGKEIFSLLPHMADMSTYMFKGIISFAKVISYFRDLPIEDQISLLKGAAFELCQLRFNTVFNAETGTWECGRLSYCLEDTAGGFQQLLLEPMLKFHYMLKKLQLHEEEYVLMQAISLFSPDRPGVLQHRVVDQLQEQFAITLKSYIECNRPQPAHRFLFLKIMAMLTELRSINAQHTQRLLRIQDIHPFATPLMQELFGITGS

[25] = biological target: Voltage-gated inwardly rectifying potassium channel KCNH2 (Homo sapiens, UniProt Q12809); test: Inhibition of hERG; type: toxicity
[26] = Inhibition of Calcium ion channel (unknown origin); parameters: species or system Homo sapiens
[27] = biological target: Dihydroorotate dehydrogenase (quinone), mitochondrial (Homo sapiens, UniProt Q02127); test: Binding affinity to recombinant human DHODH assessed as dissociation constant by surface plasmon resonance assay
[28] = test system: MOLM-13; test: Antitumor activity against human MOLM-13 cells xenografted in NSG mouse assessed as tumor growth inhibition at 0.031 mg/kg,po administrated daily for 10 days relative to control; type: functional; details: MOLM-13, 240 h, time 10 day, read-out: TGI
[29] = test system: MOLM-13; test: Antitumor activity against human MOLM-13 cells xenografted in NSG mouse assessed as tumor growth inhibition at 0.125 mg/kg,po administrated daily for 10 days relative to control; type: functional; details: MOLM-13, 240 h, time 10 day, read-out: TGI
[30] = Toxicity in NSG mouse xenografted with human MOLM-13 cells assessed as change in body weight at 0.031 to 0.25 mg/kg,po administrated daily for 10 days relative to control; type: organism-based; details: in vivo, 240 h, dose 0.031-0.25 mg/kg, time 10 day

Chain of Dihydroorotate dehydrogenase (quinone), mitochondrial (Q02127 whole entry): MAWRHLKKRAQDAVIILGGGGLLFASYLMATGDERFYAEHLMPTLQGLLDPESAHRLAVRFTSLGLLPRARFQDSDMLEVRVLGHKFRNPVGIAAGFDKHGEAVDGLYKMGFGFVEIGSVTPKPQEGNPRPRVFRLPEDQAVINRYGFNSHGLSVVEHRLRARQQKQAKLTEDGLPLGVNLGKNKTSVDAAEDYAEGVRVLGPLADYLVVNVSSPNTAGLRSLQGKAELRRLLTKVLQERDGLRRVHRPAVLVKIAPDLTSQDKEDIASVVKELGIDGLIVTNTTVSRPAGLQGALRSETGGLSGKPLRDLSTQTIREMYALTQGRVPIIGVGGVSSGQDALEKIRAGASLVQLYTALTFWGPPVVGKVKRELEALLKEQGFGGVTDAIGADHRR
Chain of Voltage-gated inwardly rectifying potassium channel KCNH2 (Q12809 whole entry): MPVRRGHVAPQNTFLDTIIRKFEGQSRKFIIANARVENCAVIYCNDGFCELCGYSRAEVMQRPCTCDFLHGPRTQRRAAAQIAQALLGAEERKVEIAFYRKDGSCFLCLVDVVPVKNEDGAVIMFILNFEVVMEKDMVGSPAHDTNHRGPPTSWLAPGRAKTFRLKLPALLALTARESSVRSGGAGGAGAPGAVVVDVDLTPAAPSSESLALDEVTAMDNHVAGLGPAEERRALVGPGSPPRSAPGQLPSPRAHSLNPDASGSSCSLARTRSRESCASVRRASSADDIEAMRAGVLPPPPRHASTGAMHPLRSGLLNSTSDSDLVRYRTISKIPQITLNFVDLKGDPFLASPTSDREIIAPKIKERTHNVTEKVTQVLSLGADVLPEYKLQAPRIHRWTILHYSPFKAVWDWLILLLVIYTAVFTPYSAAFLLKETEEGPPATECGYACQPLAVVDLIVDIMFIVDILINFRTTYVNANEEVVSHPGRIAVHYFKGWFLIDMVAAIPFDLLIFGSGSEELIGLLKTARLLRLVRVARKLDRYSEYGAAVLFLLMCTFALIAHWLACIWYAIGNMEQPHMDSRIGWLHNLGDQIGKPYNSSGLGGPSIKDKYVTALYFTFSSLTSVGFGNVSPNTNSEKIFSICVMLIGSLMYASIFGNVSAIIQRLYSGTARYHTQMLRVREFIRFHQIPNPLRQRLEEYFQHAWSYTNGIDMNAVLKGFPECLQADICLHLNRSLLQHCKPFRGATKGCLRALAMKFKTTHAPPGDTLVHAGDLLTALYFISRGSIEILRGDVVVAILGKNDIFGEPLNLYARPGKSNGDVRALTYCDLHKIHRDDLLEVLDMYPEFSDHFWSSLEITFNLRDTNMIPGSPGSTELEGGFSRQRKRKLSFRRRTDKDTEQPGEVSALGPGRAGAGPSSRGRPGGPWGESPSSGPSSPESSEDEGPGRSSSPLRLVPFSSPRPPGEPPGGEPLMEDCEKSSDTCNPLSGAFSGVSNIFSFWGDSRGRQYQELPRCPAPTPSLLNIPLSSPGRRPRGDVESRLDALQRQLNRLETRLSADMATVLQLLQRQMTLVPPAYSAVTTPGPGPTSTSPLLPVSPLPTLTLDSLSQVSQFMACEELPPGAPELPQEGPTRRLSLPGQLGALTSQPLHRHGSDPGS

`CCn1c(CO)nn(-c2cc3c(C(C)C)cn(-c4ccccc4C)c(=O)c3cc2F)c1=O` showed an IC50 [1] of 0.19 nM, a Papp A→B [2] of 33.1 ×10⁻⁶ cm/s and a logD [3] of 2.7. It also gave a half-life [4] greater than 3 h, a half-life [5] greater than 3 h and a solubility thermodynamic [6] of 325 µM (≈ 142 µg/mL). For the same compound, the solubility thermodynamic [7] was 25 µg/mL (≈ 57.3 µM), the solubility thermodynamic [8] was 67 µg/mL (≈ 153 µM) and the fraction unbound at 6.5 h, 1 µM [9] was 0.099. The Vd [10] was 1.6 L/kg, the half-life [11] was 5.7 h and the Tmax [12] was 1.7 h. For the same compound, the bioavailability [13] was 125%, the Cmax [14] was 5800 ng/mL and the AUC(0-inf) [15] was 64600 ng·h/mL. For the same compound, the bioavailability [16] was 88%, the half-life [17] was greater than 3 h and the half-life [18] was greater than 6.18 h. It also gave a half-life [19] greater than 6.18 h, a half-life [20] greater than 6.18 h and a half-life [21] of 0.242 h. For the same compound, the Activity [22] was “Not Active”, the fold induction [23] was less than 2 and the fold induction at 1 µM [24] was 3.2. For the same compound, the IC50 [25] was greater than 10000 nM, the IC50 [26] was greater than 10000 nM and the Kd [27] was 2.22 nM. For the same compound, the inhibition in vivo at 0.031 mg/kg [28] was 42%, the inhibition in vivo at 0.125 mg/kg [29] was 92% and the Activity [30] was “Toxic”.
